Inhibition data for eleven molecules are collected here from patent US8178543B2, “Bi- and tricyclic fused pyrimidines as tyrosine kinase inhibitors” (Takeda Pharmaceutical Company Limited, priority 2004, dated 2012).

Molecules are shown by their SMILES.

In the first experiment the target is T1, HER2 intracellular domain (Homo sapiens, UniProt P04626).
T1 construct: made in house; host or cells: SF-21 insect cells, recombinant baculovirus BAC-HER2
T1 sequence (P04626 676-1255 limits assumed): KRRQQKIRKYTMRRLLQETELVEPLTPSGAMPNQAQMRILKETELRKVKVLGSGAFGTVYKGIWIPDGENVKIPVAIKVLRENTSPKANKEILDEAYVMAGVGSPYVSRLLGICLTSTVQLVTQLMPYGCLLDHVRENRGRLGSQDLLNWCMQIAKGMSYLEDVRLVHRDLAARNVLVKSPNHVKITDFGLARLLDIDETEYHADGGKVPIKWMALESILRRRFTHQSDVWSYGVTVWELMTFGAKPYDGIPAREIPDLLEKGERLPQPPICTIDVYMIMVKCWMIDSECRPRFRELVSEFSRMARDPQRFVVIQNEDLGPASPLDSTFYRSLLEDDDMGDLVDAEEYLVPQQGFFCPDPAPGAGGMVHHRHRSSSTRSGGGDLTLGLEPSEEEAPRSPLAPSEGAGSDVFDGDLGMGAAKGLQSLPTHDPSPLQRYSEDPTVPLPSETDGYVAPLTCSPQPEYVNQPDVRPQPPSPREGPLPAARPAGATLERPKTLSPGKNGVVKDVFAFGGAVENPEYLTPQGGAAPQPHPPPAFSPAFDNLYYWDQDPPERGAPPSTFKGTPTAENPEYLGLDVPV
In words: Determination of HER2 kinase inhibitory activity. Format: biochemical. Conditions: 1.0 μM test compound; poly-Glu:Tyr (4:1) substrate, [γ-32P]ATP, 25° C., 10 min; read-out: HER2 kinase Inhibitory rate (%) at 1.0 μM. How it is done: Human HER2 gene was cloned by RT-PCR using total RNA prepared from MCF7 cells as a template. The primer used for RT-PCR was prepared from nucleotide sequence (Genbank Accession M11730) information of HER2 gene by adding a nucleotide sequence encoding flag peptide and a restriction enzyme recognition sequence to a nucleotide sequence (2176-3918 of Genbank Accession M11730) encoding the HER2 intracellular domain region, so that the protein contains an N-terminal Flag tag. The primer nucleotide sequence is shown below.
The RT reaction was conducted using SuperScript First-Strand Synthesis System for RT-PCR (Invitrogen) and the PCR reaction was conducted using a KOD-plus kit (TOYOBO). The obtained PCR product was electrophoresed on agarose gel (1%), the DNA fragment amplified by PCR was recovered from the gel, and then digested with restriction enzymes Sal I and Sph I. The DNA treated with the restriction enzymes was electrophoresed on agarose gel (1%), and the obtained DNA fragment was recovered and ligated to plasmid pFASTBAC1 (Invitrogen) digested with restriction enzymes Sal I and Sph I to give expression plasmid pFB-HER2. The nucleotide sequence of the insertion fragment was confirmed and found to be identical with the nucleotide sequence (2176-3918 of Genbank Accession M11730) of HER2 intracellular domain. Furthermore, using BAC-TO-BAC Baculovirus Expression System (Invitrogen), recombinant baculovirus BAC-HER2 was prepared.
SF-21 cells were sown at 1×10^6 cells/mL to Sf-900II SFM medium (1 L, Invitrogen) containing 10% fetal bovine serum (trace), 50 mg/L gentamicin (Invitrogen) and 0.1% Pluronic F-68 (Invitrogen), and shaking culture was performed using a 2 L volume Erlenmeyer flask at 27° C., 100 rpm. After culturing for 24 hrs, recombinant baculovirus BAC-HER2 (13.4 mL) was added, and the mixture was further cultured for 3 days. The culture medium was centrifuged at 2,000 rpm for 5 min. to give virus-infected cells. The infected cells were washed with a phosphate buffered saline (Invitrogen), centrifuged under the same conditions, and the cells were preserved at −80° C. The cryopreserved cells were thawed in ice, suspended in buffer A (50 mM Tris buffer (30 mL, pH 7.4) containing 20% glycerol, 0.15 M NaCl) supplemented with Complete Protease Inhibitor (Boehringer), and ruptured 3 times with a Polytron homogenizer (Kinematica) at 20,000 rpm for 30 sec. The rupture medium was clarified by centrifugation at 40,000 rpm for 30 min. and filtered with a 0.45 μm filter. The filtrate was passed through a column packed with Anti-FLAG M2 Affinity Gel (4 mL, Sigma) at a flow rate of about 0.5 mL/min. The column was washed with buffer A, and eluted with buffer A containing 100 μg/mL of FLAG peptide. The eluate was concentrated with Vivaspin 20 (Vivascience) having a molecular weight cut off of 30K. The concentrate was purified by gel filtration using Hi Load Superdex 200 pg 16/60 (Amersham Bioscience) equilibrated with buffer A. The fractions containing HER2 intracellular domain were collected, glycerol was added to the final concentration of 50% and cryopreserved at −80° C.
A test compound dissolved in dimethyl sulfoxide (DMSO) was diluted with a buffer for kinase reaction (50 mM Tris-HCl (pH7.5), 5 mM MgCl2, 5 mM MnCl2, 2 mM dithiothreitol, 0.01% Tween-20). To this compound solution (10 μL) was added a buffer for kinase reaction (20 μL) containing 5 μg/mL of HER2 intracellular domain obtained in Experimental Example 1B and 12.5 μg/mL of polypeptide substrate poly-Glu:Tyr (4:1) (Sigma). To the obtained mixture was added 20 μL of ATP solution (1.25 μM ATP, 0.05 μCi [γ-^32P]ATP), the mixture was allowed to react at 25° C. for 10 min. and the reaction was quenched with 50 μL of 20% TCA solution. The reaction solution was allowed to stand at 4° C. for 20 min., and the acid insoluble fraction was transferred to GF/C filter (PerkinElmer) using cell harvester (PerkinElmer) and washed with 250 mM phosphoric acid solution. […]
Regarding `CCOCCn1ccc2ncnc(Nc3ccc(OCc4cccc(F)c4)c(Cl)c3)c21` [Example 38, N-{3-chloro-4-[(3-fluorobenzyl)oxy]phenyl}-5-(2-ethoxyethyl)-5H-pyrrolo[3,2-d]pyrimidin-4-amine], the inhibition at 1 µM stood at 95.9%.

As for `Cc1ccc(Oc2ccc(Nc3ncnc4cc(/C=C/CO)[nH]c34)cc2C)cn1` [Example 13, (2E)-3-[4-({3-methyl-4-[(6-methylpyridin-3-yl)oxy]phenyl}amino)-5H-pyrrolo[3,2-d]pyrimidin-6-yl]-2-propen-1-ol], the inhibition at 1 µM was determined as 94.9%.

As to `CC(C)(O)CC(=O)NCCn1ccc2ncnc(Nc3ccc(Oc4cccc(C(F)(F)F)c4)c(Cl)c3)c21` [Example 158, N-{2-[4-({3-chloro-4-[3-(trifluoromethyl)phenoxy]phenyl}amino)-5H-pyrrolo[3,2-d]pyrimidin-5-yl]ethyl}-3-hydroxy-3-methylbutanamide], the inhibition at 1 µM is 87%.

With `CS(=O)(=O)CC(=O)NCCn1ccc2ncnc(Nc3ccc(Oc4cccc(Cl)c4)c(Cl)c3)c21` [Example 191, N-[2-(4-{[3-chloro-4-(3-chlorophenoxy)phenyl]amino}-5H-pyrrolo[3,2-d]pyrimidin-5-yl)ethyl]-2-(methylsulfonyl)acetamide], the inhibition at 1 µM turned out to be 100%.

Regarding `Cn1ccc2ncnc(Nc3ccc(OCc4cccc(F)c4)c(Cl)c3)c21` [Example 39, N-{3-chloro-4-[(3-fluorobenzyl)oxy]phenyl}-5-methyl-5H-pyrrolo[3,2-d]pyrimidin-4-amine], the inhibition at 1 µM is 96.1%.

With `Cc1cc(Nc2ncnc3ccn(CCNC(=O)CS(C)(=O)=O)c23)ccc1Oc1cccc(OC(F)(F)F)c1` [Example 190, 2-(methylsulfonyl)-N-{2-[4-({3-methyl-4-[3-(trifluoromethoxy)phenoxy]phenyl}amino)-5H-pyrrolo[3,2-d]pyrimidin-5-yl]ethyl}acetamide], the inhibition at 1 µM came out at 95.9%.

The target in another experiment is T2, EGF receptor intracellular domain protein (Homo sapiens, UniProt P00533).
T2 construct: encoding EGF receptor intracellular domain region, so that the protein contains an N-terminal Flag tag; made in house; host or cells: SF-21 insect cells, recombinant baculovirus BAC-EGFR
T2 sequence (P00533 669-1210 limits assumed): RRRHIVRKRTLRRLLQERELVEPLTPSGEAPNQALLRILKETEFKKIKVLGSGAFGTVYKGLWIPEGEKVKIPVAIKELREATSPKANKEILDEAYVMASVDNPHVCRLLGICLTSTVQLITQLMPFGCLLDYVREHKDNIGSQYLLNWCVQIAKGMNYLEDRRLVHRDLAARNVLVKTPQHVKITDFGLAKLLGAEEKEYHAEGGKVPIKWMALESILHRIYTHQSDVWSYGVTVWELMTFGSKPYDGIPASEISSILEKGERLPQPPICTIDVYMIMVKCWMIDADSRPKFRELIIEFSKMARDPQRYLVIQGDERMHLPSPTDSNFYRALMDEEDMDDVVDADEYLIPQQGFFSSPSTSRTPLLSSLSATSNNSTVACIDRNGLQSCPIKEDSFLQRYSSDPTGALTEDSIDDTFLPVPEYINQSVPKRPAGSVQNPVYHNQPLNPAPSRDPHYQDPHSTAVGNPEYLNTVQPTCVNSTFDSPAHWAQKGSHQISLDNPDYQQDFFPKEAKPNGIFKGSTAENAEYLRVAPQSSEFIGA
Put plainly: Determination of EGF receptor kinase inhibitory activity. Conditions: 1.0 μM test compound; biotinyl-poly-Glu:Tyr (4:1), AlphaScreen, 25° C., 10 min; read-out: EGF receptor kinase Inhibitory rate (%) at 1.0 μM. Format: biochemical. The method, then: Human EGF receptor gene was cloned by RT-PCR using total RNA prepared from A431 cells as a template. The primer for RT-PCR was prepared from nucleotide sequence (Genbank Accession XM—167493) information of EGF receptor gene by adding a nucleotide sequence encoding flag peptide and a restriction enzyme recognition sequence to a nucleotide sequence (2182-3810 of Genbank Accession XM—167493) encoding EGF receptor intracellular domain region, so that the protein contains an N-terminal Flag tag. The primer nucleotide sequence is shown below.
The RT reaction was conducted using SuperScript First-Strand Synthesis System for RT-PCR (Invitrogen) and the PCR reaction was conducted using a KOD-plus kit (TOYOBO). The obtained PCR product was electrophoresed on agarose gel (1%), the DNA fragment amplified by PCR was recovered from the gel, and then digested with restriction enzymes Sal I and Sph I. The DNA treated with the restriction enzymes was electrophoresed on agarose gel (1%), and the obtained DNA fragment was recovered and ligated to plasmid pFASTBAC1 (Invitrogen) digested with restriction enzymes Sal I and Sph I to give expression plasmid pFB-EGFR. The nucleotide sequence of insertion fragment was confirmed and found to be identical with the nucleotide sequence (2182-3810 of Genbank Accession XM—167493) of EGFR intracellular domain. Furthermore, using BAC-TO-BAC Baculovirus Expression System (Invitrogen), virus stock BAC-EGFR of recombinant baculovirus was prepared.
SF-21 cells were sown at 1×10^6 cells/mL to Sf-900II SFM medium (1 L, Invitrogen) containing 10% fetal bovine serum (trace), 50 mg/L gentamicin (Invitrogen) and 0.1% Pluronic F-68 (Invitrogen), and shaking culture was performed using a 2 L volume Erlenmeyer flask at 27° C., 100 rpm. After culturing for 24 hrs, recombinant baculovirus BAC-EGFR (13.4 mL) was added, and the mixture was further cultured for 3 days. The culture medium was centrifuged at 2,000 rpm for 5 min. to give virus-infected cells. The infected cells were washed with a phosphate buffered saline (Invitrogen), centrifuged under the same conditions, and the cells were preserved at −80° C. The cryopreserved cells were thawed in ice, suspended in buffer A (50 mM Tris buffer (30 mL, pH7.4) containing 20% glycerol, 0.15 M NaCl) supplemented with Complete Protease Inhibitor (Boehringer), and ruptured 3 times with a Polytron homogenizer (Kinematica) at 20,000 rpm for 30 sec. The ruptured medium was clarified by centrifugation at 40,000 rpm for 30 min. and filtered with a 0.45 μm filter. The filtrate was passed through a column packed with Anti-FLAG M2 Affinity Gel (4 mL, Sigma) at a flow rate of about 0.5 mL/min. The column was washed with buffer A, and eluted with buffer A containing 100 μg/mL of FLAG peptide. The eluate was concentrated with Vivaspin 20 (Vivascience) having a molecular weight cut off of 30K. The buffer of this concentrate was exchanged using NAPE 25 column (Amersham Bioscience) equilibrated with buffer A. The fractions containing EGF receptor intracellular domain protein were collected, glycerol was added to the final concentration of 50% and cryopreserved at −80° C.
A test compound dissolved in dimethyl sulfoxide (DMSO) was diluted with a buffer (50 mM Tris-HCl (pH 7.5), 5 mM MgCl2, 5 mM MnCl2, 2 mM dithiothreitol, 0.01% Tween-20). To this compound solution (5 μL) was added a buffer (10 μL) containing 250 ng/mL of EGF receptor intracellular domain protein and 250 ng/mL of biotin labeled polypeptide biotinyl-poly-Glu:Tyr (4:1) (CIS bio International). […]
For the molecule `Cn1c(/C=C/CO)cc2ncnc(Nc3ccc(OCc4cccc(F)c4)c(Cl)c3)c21` [Example 22, (2E)-3-[4-({3-chloro-4-[(3-fluorobenzyl)oxy]phenyl}amino)-5-methyl-5H-pyrrolo[3,2-d]pyrimidin-6-yl]-2-propen-1-ol], the inhibition at 1 µM was 98.5%.

As to `OCCn1ccc2ncnc(Nc3ccc(OCc4cccc(F)c4)c(Cl)c3)c21` [Example 41, 2-[4-({3-chloro-4-[(3-fluorobenzyl)oxy]phenyl}amino)-5H-pyrrolo[3,2-d]pyrimidin-5-yl]ethanol], the inhibition at 1 µM worked out at 98.9%.

On to `OCCOCCn1ccc2ncnc(Nc3ccc(OCc4cccc(F)c4)c(Cl)c3)c21` [Example 138, 2-{2-[4-({3-chloro-4-[(3-fluorobenzyl)oxy]phenyl}amino)-5H-pyrrolo[3,2-d]pyrimidin-5-yl]ethoxy}ethanol], for which the inhibition at 1 µM is 99%.

Take `CS(=O)(=O)CC(=O)NCCn1ccc2ncnc(Nc3ccc(Oc4cccc(C(F)(F)F)c4)c(Cl)c3)c21` [Example 160, N-{2-[4-({3-chloro-4-[3-(trifluoromethyl)phenoxy]phenyl}amino)-5H-pyrrolo[3,2-d]pyrimidin-5-yl]ethyl}-2-(methylsulfonyl)acetamide]: the inhibition at 1 µM is 97%.

For the molecule `OCCOCCn1ccc2ncnc(Nc3ccc(Oc4cccc(C(F)(F)F)c4)c(Cl)c3)c21` [Example 147, 2-{2-[4-({3-Chloro-4-[3-(trifluoromethyl)phenoxy]phenyl}amino)-5H-pyrrolo[3,2-d]pyrimidin-5-yl]ethoxy}ethanol], the inhibition at 1 µM was 96%.
